Measurements: patent publication US8609654B1, “Compounds for enzyme inhibition” (Onyx Therapeutics, Inc., priority 2006, dated 2013)

Experiments:
[1] = target: T1, 20S proteasome subunit β5 vs immunoproteasome subunit LMP7 in RPMI-8226 cells (Homo sapiens, UniProt P28062+P28074); assay: ELISA-based active site assay in RPMI-8226 cells (ELISA ratio); type: cell-based; settings: EC50 ratio with β5 antibody to LMP7 antibody, RPMI-8226 cells; >1 = prefers immunoproteasome
T1 construct: Cells expressing approximately equivalent amounts of immuno- and constitutive proteasome (e.g., RPMI-8226) are treated with test compound; endogenous in cells; host or cells: RPMI-8226 multiple myeloma cells
T1 sequence (P28074 60-263): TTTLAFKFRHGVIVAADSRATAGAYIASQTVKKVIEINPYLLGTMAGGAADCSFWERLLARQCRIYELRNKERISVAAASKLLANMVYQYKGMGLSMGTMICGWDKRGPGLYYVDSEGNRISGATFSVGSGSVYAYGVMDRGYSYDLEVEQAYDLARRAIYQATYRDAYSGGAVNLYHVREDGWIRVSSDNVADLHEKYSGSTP
T1 sequence (P28062 73-276): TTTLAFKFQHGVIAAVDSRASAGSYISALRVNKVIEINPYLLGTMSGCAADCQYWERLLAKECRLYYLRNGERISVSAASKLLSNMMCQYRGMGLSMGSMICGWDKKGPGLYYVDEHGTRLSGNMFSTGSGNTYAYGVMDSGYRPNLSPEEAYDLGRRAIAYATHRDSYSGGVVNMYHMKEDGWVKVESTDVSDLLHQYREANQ
Method: Lastly, a more cell-based approach can be utilized. Cells expressing approximately equivalent amounts of immuno- and constitutive proteasome (e.g., RPMI-8226) are treated with test compound, followed by the method for determining the activity of a proteasome inhibitor as described in application Ser. No. 11/254,541. The ratio of the EC50 generated in the ELISA-based assay using β5 antibody and LMP7 antibodies (ELISA ratio) provides the basis for determining the inhibitory preference of the test compound. […] In all three assays, a ratio of less than one denotes the molecule inhibits the CT-L activity of the constitutive proteasome better than that of the immunoproteasome. Ratios greater than one signifies the molecule inhibits chymotrypsin-like activity of the immunoproteasome better than that of the constitutive proteasome.
A suitable ELISA assay may be found in U.S. patent application Ser. No. 11/254,541, incorporated herein in its entirety. Briefly, RPMI-8226 cells were treated with 0.1 nM to 1 μM of proteasome Inhibitor B. The samples were then washed with phosphate-buffered saline (PBS) and lysed in hypotonic buffer (20 mM Tris pH 8, 5 mM EDTA) (Tris-HCl and EDTA are available from Teknova, Inc., Hollister, Calif.). Cellular debris was removed by centrifugation at 14,000 rpm in a microfuge (4° C.) for 2 min. The supernatant was transferred to a fresh tube, snap frozen in liquid nitrogen and stored at −80° C. After thawing on ice, the samples (30 μl for assays run in triplicate) were treated with 500 nM of Inhibitor A for 1 hr at room temperature. Following treatment with Inhibitor A, the lysate was denatured by addition of seven volumes of 1% SDS (210 μl) (available from Bio-Rad, Hercules, Calif.) and heating at 99° C. with vigorous shaking for 5 min. The sample was allowed to cool and two volumes (60 μl) of 10% Triton X-100 (available from Bio-Rad, Hercules, Calif.) was added.
Streptavidin sepharose beads (6.5 μl/well) (available from Amersham Biosciences, Piscataway, N.J.), were washed three times with 1 ml PBS (available from Mediatech, Inc., Herndon, Va.) in a microcentrifuge tube. The beads were resuspended in ELISA wash/block buffer (PBS+0.1% Tween 20+1% bovine serum albumin; 20 μl/well) and transferred to the wells of a 96 well filter plate (BSA is available from Sigma, St. Louis, Mo.; Tween is available from Calbiochem, San Diego, Calif.). Denatured whole blood or PBMC lysates that were treated with Inhibitor 3 were added to the filter plate wells containing the streptavidin sepharose beads (each sample assayed in triplicate) and incubated for 1 hr at room temperature with shaking (MultiScreen-DV Opaque Plates with low protein binding durapore membrane; available from Millipore, Billerica, Mass.). The unbound material was removed by gentle filtration and the beads were washed six times with ELISA wash/block buffer (200 μl each).
Primary antibody to human 20S proteasome subunit (35 (rabbit polyclonal antibody; available from Biomol, Plymouth Meeting, Pa.) or human 20S immunoproteasome subunit LMP7 (rabbit polyclonal antibody; available from Affinity BioReagents, Golden, Colo.) was diluted 1:1000 in ELISA wash/block buffer, added to the beads (100 μl/well), and incubated for 1 hr at room temperature on an orbital shaker. The beads were washed six times with ELISA wash/block buffer with gentle filtration. Secondary antibody treatment (1:5000) and washing are as described for primary antibody (goat anti-rabbit antibody-HRP conjugate; available from Biosource, Camarillo, Calif.). The beads were then resuspended in 100 μl chemiluminescent detection reagent (Super Signal Pico Chemiluminescent Substrate™; available from Pierce, Rockford, Ill.) and luminescence was read on a Tecan plate reader. […]

[2] = target: T2, 26S proteasome CT-L activity in lysate of HT29 (constitutive) vs Sultan/Thp1 (immunoproteasome) cells (Homo sapiens, UniProt P28062+P28074); assay: CT-L EC50 with 26S proteasome in cell lysate (Lysate ratio); type: biochemical; settings: HT29 lysate to Sultan/Thp1 lysate, >1 = prefers immunoproteasome
T2 construct: using 26S proteasome in the context of a cell lysate; endogenous in cells; host or cells: HT29 lysate (constitutive); Sultan or THP1 lysate (immunoproteasome)
T2 sequence (P28074 60-263): T1 sequence (P28074 60-263)
T2 sequence (P28062 73-276): T1 sequence (P28062 73-276)
Method: Alternatively, the CT-L EC50 of a compound can be determined using 26S proteasome in the context of a cell lysate. Compound is added to lysate generated from cells that either predominantly express constitutive proteasome (e.g., HT29) or immunoproteasome (e.g., THP1). Again, the inhibitory preference is then based on the EC50 ratio (Lysate ratio).

[3] = tested on: chymotryptic-like activity of isolated 20S constitutive proteasome vs immunoproteasome; assay: Enzyme kinetic assay with isolated 20S proteasome preps, EC50 ratio of CT-L activity (20S ratio); type: biochemical; settings: constitutive proteasome to immunoproteasome, >1 = prefers immunoproteasome
Description: Enzyme kinetic assays such as those disclosed in U.S. application Ser. No. 09/569,748, Example 2 and Stein et al., Biochem. (1996), 35, 3899-3908 use isolated 20S proteasome preps with greater than 90% constitutive proteasome subunits or immunoproteasome subunits. The inhibitory preference of the molecule is then based on the EC50 ratio of the chymotryptic-like activity of the constitutive proteasome to that of the immunoproteasome (20S ratio).

[4] = tested on: rheumatoid arthritis induced by immunization with bovine type II collagen in CFA; assay: Mouse model of RA by immunization with bovine type II collagen; type: in vivo, female DBA/1 mice
Method: The effect administration of Compound 14 on disease progress was also assessed in an alternative mouse model for RA, in which disease develops 21-30 days after immunization with bovine type II collagen (Kagari et al., J Immunol 169:1459-1466, 2002). […] Again, disease progression was measured using a total clinical score of paw condition per mouse.

[5] = tested on: rheumatoid arthritis induced by anti-type II collagen antibodies and LPS; assay: Arthrogenic antibody mouse model of rheumatoid arthritis (anti-collagen antibodies and LPS); type: in vivo, female Balb/c mice
Method: The effect of Compound 14 on disease progression was assessed in 2 mouse models of rheumatoid arthritis (FIG. 2). […] Rhematoid arthritis was induced on Day 0 in female Balb/c mice by IV administration of anti-type II collagen antibodies followed 3 days later by LPS. […] Per mouse, each paw was measured for disease using a scale of 0-4 and a total clinical score was assigned for each animal (max score=16). Administration of 6 mg/kg of Compound 14 reduced disease severity by ˜50% while the 20 mg/kg dose level inhibited the disease by greater than 75%.

SMILES | Elisa ratio (beta5:LMP7) [1] | Lysate ratio (HT29:Sultan/Thp1) [2] | 20 S ratio (const:immuno) [3] | effect on disease progression ([4]; 6 or 20 mg/kg beginning after first signs of disease, total clinical score) | dose dependence of reduction of disease severity ([4]; 6 vs 20 mg/kg) | reduction of disease severity ([5]; 6 mg/kg IV 3 times/week for 2 weeks from Day 4) | inhibition of the disease ([5]; 20 mg/kg IV 3 times/week for 2 weeks from Day 4) | effect on disease progression ([5]; IV 3 times/week for 2 weeks from Day 4, total clinical score (max 16))
CC1(C(=O)[C@H](Cc2ccccc2)NC(=O)[C@H](Cc2ccccc2)NC(=O)[C@H](Cc2c[nH]cn2)NC(=O)OCc2ccccc2)CO1 (some centres unmarked) | <1.0 | <1.0 | <1.0 | – | – | – | – | –
CC(C)C(NC(=O)OCc1ccccc1)C(=O)N[C@@H](Cc1ccccc1)C(=O)N[C@@H](Cc1ccccc1)C(=O)C1(C)CO1 (some centres unmarked) | >2.0 | >2.0 | >5.0 | – | – | – | – | –
CC(NC(=O)OCc1ccccc1)C(=O)N[C@@H](Cc1ccc(C(F)(F)F)cc1)C(=O)N[C@@H](Cc1ccccc1)C(=O)C1(C)CO1 (some centres unmarked) | >1.0 | >2.0 | >5.0 | – | – | – | – | –
CC(C)C(NC(=O)OCc1ccccc1)C(=O)N[C@@H](Cc1c[nH]c2ccccc12)C(=O)N[C@@H](Cc1ccccc1)C(=O)C1(C)CO1 (some centres unmarked) | >5.0 | >5.0 | >5.0 | – | – | – | – | –
CC(NC(=O)OCc1ccccc1)C(=O)N[C@@H](Cc1ccccc1)C(=O)N[C@@H](CCc1ccccc1)C(=O)C1(C)CO1 (some centres unmarked) | >3.0 | >3.0 | >2.0 | – | – | – | – | –
COc1ccc(C[C@H](NC(=O)[C@H](C)NC(=O)CN2CCOCC2)C(=O)N[C@@H](Cc2ccccc2)C(=O)[C@@]2(C)CO2)cc1 [Compound 14] | – | – | – | inhibited disease progression as compared to vehicle control | enhanced reduction of disease severity | ~50% | greater than 75% | inhibited disease progression in a dose dependent manner
COc1ccc(C[C@H](NC(=O)C(C)NC(=O)OCc2ccccc2)C(=O)N[C@@H](Cc2ccc(O)cc2)C(=O)C2(C)CO2)cc1 (some centres unmarked) [drawing 65] | >5.0 | >2.0 | >5.0 | – | – | – | – | –
COc1ccc(C[C@H](NC(=O)C(C)NC(=O)OCc2ccccc2)C(=O)N[C@@H](Cc2ccccc2)C(=O)C2(C)CO2)cc1 (some centres unmarked) [drawing 66] | >5.0 | >3.0 | >5.0 | – | – | – | – | –
COc1ccc(C[C@H](NC(=O)C(C)NC(=O)OCc2ccccc2)C(=O)N[C@@H](Cc2ccc(O)cc2)C(=O)C2(C)CO2)cc1 (some centres unmarked) [drawing 67] | >5.0 | >3.0 | >5.0 | – | – | – | – | –
CC[C@@H](NC(=O)OCc1ccccc1)C(=O)N[C@@H](Cc1c[nH]c2ccccc12)C(=O)N[C@@H](Cc1ccccc1)C(=O)C1(C)CO1 (some centres unmarked) [drawing 84] | >5.0 | >3.0 | >5.0 | – | – | – | – | –
COc1ccc(C[C@H](NC(=O)C(C)NC(=O)OCc2ccccc2)C(=O)N[C@@H](Cc2ccccc2)C(=O)C2(C)CO2)cc1 (some centres unmarked) [drawing 86] | >5.0 | >2.0 | >2.0 | – | – | – | – | –
